Numbers after ± are expanded uncertainties.
Assay: molar enthalpy of vaporization or sublimation
Settings: 298.15 K, Static calorimetry

| Structure (SMILES) | molar enthalpy (Liquid) [kcal/mol] | molar enthalpy (Crystal) [kcal/mol] |
| --- | --- | --- |
| COc1ccccc1C(C)=O [2'-methoxyacetophenone] | 15.9 ± 0.287 |  |
| COc1cccc(C(C)=O)c1 [3'-methoxyacetophenone] | 16.2 ± 0.287 |  |
| COc1ccc(C(C)=O)cc1 [4'-methoxyacetophenone] |  | 21 ± 0.335 |

Source: the NIST ThermoML archive (doi:10.1016/j.jct.2014.03.027)
